Results: paper PMC8845285, “Serotoninergic receptor ligands improve Tamoxifen effectiveness on breast cancer cells” (BMC Cancer, 2022)

Assays:
[1] = target: T1, serotonin 5-HT2A receptor (Rattus norvegicus, UniProt P14842); test: radioligand binding assay, 5-HT2A, [3H]ketanserin; settings: rat brain cortex; for Ki: read-out: Ki ± SD, 5-HT2A [3H]Ketanserin
T1 construct: serotonin 5-HT2A receptor, [^3H]ketanserin, rat brain cortex; from tissue; host or cells: rat brain cortex
Protocol: All reactions were monitored by TLC, carried out on Merck 60G F254 plates with fluorescent indicator and the plates were visualized with UV light (254 nm). Each final compound and intermediate was purified by silica gel column chromatography (Macherey-Nagel 60 0,063–0,2 mm/70–230 mesh). […] Unless otherwise stated, all spectra were recorded in CDCl3. Chemical shifts are reported in ppm using Me4Si as internal standard. The following abbreviations are used to describe peak patterns when appropriate: s (singlet), d (doublet), t (triplet), m (multiplet), q (quartet), qt (quintet), dd (double doublet), ddd (double dd), bs (broad singlet). Mass spectra of the final products were performed on LTQ Orbitrap XL™ Fourier transform mass spectrometer (FTMS) equipped with ESI ION MAX™ source (Thermo Fisher, San José, USA). Melting points were determined using a Buchi B-540 hot-stage instrument and are uncorrected. […] All the compounds were dissolved in 5% DMSO. The following specific radioligands and tissue sources were used: (a)serotonin 5-HT1A receptor, [^3H]-8-OH-DPAT, rat brain cortex; (b) serotonin 5-HT2A receptor, [^3H]ketanserin, rat brain cortex; (c)serotonin 5-HT2C receptor, [^3H]mesulergine, rat brain cortex. Non-specific binding was determined as described in the experimental section, and specific binding as the difference between total and non-specific binding. […] The IC50 values obtained were used to calculate apparent inhibition constants (Ki) by the method of Cheng and Prussoff, from the following equation: Ki = IC50/(1 + S/KD) where S represents the concentration of the hot ligand used and KD its receptor dissociation constant (KD values, obtained by Scatchard analysis, were calculated for each labeled ligand). Radioligand binding assays for 5-HT1A were performed following a published procedure. 5-HT2A and 5-HT2C binding assays were performed reported by Herndon et al..

CTGF = CTGF mRNA levels in MCF7 cells, qPCR; type: cell-based, human; settings: E2 100 nM, 72 h, estrogen-starved MCF7; for CTGF mRNA levels lower compared with untreated cells: SER at IC50 dose
Protocol: Total RNA was isolated from cells, quantified (NanoDrop spectrophotometer, Life Technologies, Carlsbad, CA, USA) and reverse transcribed according to the manufacturer’s instructions. Semiquantitative PCR and qPCR assays were performed according to manufacturer’s instructions for Bio-Rad T100 thermal cycler and CFX Connect Real Time system (Biorad, Hercules, CA, USA), respectively. Relative gene expression quantification was measured by 2^−ΔΔCt method normalizing for the reference sample using Rps23 (Ribosomal Protein S23) as housekeeping gene.
After 72 h, cell cycle was assessed by Propidium Iodide staining (see Methods). […] As positive control, the cells were treated with E2 and SER alone (without Tamoxifen, dotted line). After 72 h, cell viability was assessed by sulforhodamine B assay (see Methods). […] After 72 h, mRNA levels of CTGF were determined by qPCR (see Methods and Table 1). Data were normalized on Ribosomal Protein S23 (Rps23) gene as internal standard and were reported as CTGF mRNA levels in MCF7 treated with SER relative to those in untreated cells (dotted line). a-c Data represent the mean ± SD of at least three independent triplicate experiments. * denotes statistically significant values compared with (a) percentage of untreated cells in G0/G1, S and G2/M cell cycle phase (*pval<0.05,**pval<0.01), (b) positive control (*adjp<0.05,**adjp <0.01,***adjp<0.001), (c) untreated cells (pval<0.05); # denotes statistically significant values compared with cells treated with Tamoxifen in absence of SER (#pval<0.05)
Fig. 7 Effect of low doses of SER79 and SER68 on MCF7 and MCF10A cells. a Estrogen-starved MCF7 cells (48 h) were treated with Tamoxifen (5 μM) in presence of E2 (100nM) and SER79 (5 μM) or SER68 (20 μM, 5 μM). As positive control, the cells were treated with E2 and SER alone (without Tamoxifen, dotted line). After 72 h, cell viability was assessed by sulforhodamine B assay (see Methods). […] After 72 h, mRNA levels of CTGF were determined by qPCR (see Methods and Table 1). Data were normalized on Ribosomal Protein S23 (Rps23) gene as internal standard. Bars represent CTGF mRNA levels in MCF7 treated with SER relative to those in untreated cells (dotted line). c MCF10A non-cancer breast epithelial cells were treated with SER79 (5 μM) or SER68 (20 μM). After 72 h, cell viability was assessed by sulforhodamine B assay (see Methods).

T1 sequence (P14842 whole entry): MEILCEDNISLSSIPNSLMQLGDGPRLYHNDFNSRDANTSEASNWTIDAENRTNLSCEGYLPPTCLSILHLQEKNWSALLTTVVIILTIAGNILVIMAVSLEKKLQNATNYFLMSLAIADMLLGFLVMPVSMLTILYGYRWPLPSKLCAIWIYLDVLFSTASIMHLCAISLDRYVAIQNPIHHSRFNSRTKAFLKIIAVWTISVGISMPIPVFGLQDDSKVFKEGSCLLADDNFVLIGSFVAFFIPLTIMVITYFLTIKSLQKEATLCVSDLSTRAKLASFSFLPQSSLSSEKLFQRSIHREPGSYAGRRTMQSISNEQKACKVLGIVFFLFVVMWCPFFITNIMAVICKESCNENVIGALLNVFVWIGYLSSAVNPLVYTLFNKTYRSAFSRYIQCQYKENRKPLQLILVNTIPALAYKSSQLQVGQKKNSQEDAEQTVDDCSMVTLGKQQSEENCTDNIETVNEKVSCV

SMILES | Ki [1] [nM] | reduction of CTGF expression (CTGF; SER 20 μM) | CTGF mRNA levels lower compared with untreated cells (CTGF) | Ki ± SD, 5-HT2A [3H]Ketanserin [1] | reduction of CTGF expression (CTGF; SER 5 μM)
O=C1C2C3C=CC(C3)C2C(=O)N1OCCN1CCN(c2ccc(Cl)c(Cl)c2)CC1 (stereo not shown) [SER68] | 153 ± 70 | ≈ 50% | ≈ 80% | – | –
N#CN=C(NCCCN1CCN(C(c2ccc(F)cc2)c2ccc(F)cc2)CC1)c1ccccn1 [SER79] | 504 ± 39.5 | – | ≈ 60% | weak | ≈ 30%
